Reference: patent US7511133B2, “Adenosine A3 receptor agonists” (King Pharmaceuticals Research and Development, Inc., priority 2003, dated 2009)

Tests used:
human A1 receptors = molecular target: T1, human A1 receptors (Homo sapiens, UniProt P30542); test: [^3H] DPCPX binding to human A1 receptors expressed in CHO cells (antagonist radioligand); settings: human A1, CHO cells, antagonist radioligand; read-out: [^3H] DPCPX binding to human A1 receptors expressed in CHO cells Ki
T1 construct: expressed in transfected cells; host or cells: CHO cells
T1 sequence (P30542 1-326): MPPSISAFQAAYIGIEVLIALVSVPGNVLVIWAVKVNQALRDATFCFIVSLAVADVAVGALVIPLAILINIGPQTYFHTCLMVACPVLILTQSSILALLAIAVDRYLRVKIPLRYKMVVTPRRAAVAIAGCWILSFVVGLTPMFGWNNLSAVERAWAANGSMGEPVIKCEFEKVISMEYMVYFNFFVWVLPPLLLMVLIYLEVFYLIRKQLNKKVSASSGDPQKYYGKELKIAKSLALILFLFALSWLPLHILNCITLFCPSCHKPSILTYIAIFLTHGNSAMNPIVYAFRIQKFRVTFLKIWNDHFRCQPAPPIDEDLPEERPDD
Procedure: Binding assay methodology for the human data with antagonist radioligands. […] Arch. […] The cells were grown adherently and maintained in Dulbecco's Modified Eagles Medium with nutrient mixture F12 (DMEM/F12) without nucleosides, containing 10% fetal calf serum, penicillin (100 U/ml), streptomycin (100 μg/ml), L-glutamine (2 mM) and Geneticin (G418, 0.2 mg/ml) at 37° C. in 5% CO2/95% air. Cells were split 2 or 3 times weekly at a ratio between 1:5 and 1:20. For membrane preparation the culture medium was removed and the cells were washed with PBS and scraped off T75 flasks in ice-cold hypotonic buffer (5 mM Tris HCl, 2 mM EDTA, pH 7.4). The cell suspension was homogenized with Polytron and the homogenate was spun for 10 min at 1,000×g. The supernatant was then centrifuged for 30 min at 100,000×g. The membrane pellet was resuspended in 50 mM Tris HCl buffer pH 7.4 (for A3 adenosine receptors: 50 mM Tris HCl, 10 mM MgCl2, 1 mM EDTA) and incubated with 3 UI/ml of Adenosine deaminase for 30 min at 37° C. Then the suspension was frozen at −80° C. HEK 293 cells transfected with the human recombinant A2B adenosine receptor were obtained from Receptor Biology, Inc. (Beltsville, Md., USA).
Displacement experiments were performed for 120 min at 25° C. in 0.2 ml of 50 mM Tris HCl buffer pH 7.4 containing 1 nM [3H]-DPCPX, diluted membranes (50 μg of protein/assay) and at least 6-8 different concentrations of antagonists studied. Non-specific binding was determined in the presence of 10 μM of CHA and this was always ≦10% of the total binding.

[1] = molecular target: T2, human A3 adenosine receptors (Homo sapiens, UniProt P0DMS8); settings: for A1/A3: ratio Ki(A1)/Ki(A3), agonist radioligands
T2 sequence (P0DMS8 1-318): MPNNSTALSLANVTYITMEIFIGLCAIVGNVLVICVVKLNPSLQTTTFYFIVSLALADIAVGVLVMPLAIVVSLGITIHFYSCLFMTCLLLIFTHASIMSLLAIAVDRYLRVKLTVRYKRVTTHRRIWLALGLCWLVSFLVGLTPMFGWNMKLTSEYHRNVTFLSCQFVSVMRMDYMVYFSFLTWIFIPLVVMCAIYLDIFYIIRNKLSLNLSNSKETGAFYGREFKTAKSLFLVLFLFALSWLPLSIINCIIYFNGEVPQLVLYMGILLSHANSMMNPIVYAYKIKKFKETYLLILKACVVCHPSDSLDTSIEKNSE

human A2A receptors = molecular target: T3, human A2A receptors (Homo sapiens, UniProt P29274); test: [^3H] SCH58261 binding to human A2A receptors expressed in CHO cells (antagonist radioligand); settings: human A2A, CHO cells, antagonist radioligand; read-out: [^3H] SCH58261 binding to human A2A receptors expressed in CHO cells Ki
T3 construct: expressed in transfected cells; host or cells: CHO cells
Procedure: (§1) Binding assay methodology for the human data with antagonist radioligands. […] Arch. Pharmacol. 357: 1-9, (1998). The cells were grown adherently and maintained in Dulbecco's Modified Eagles Medium with nutrient mixture F12 (DMEM/F12) without nucleosides, containing 10% fetal calf serum, penicillin (100 U/ml), streptomycin (100 μg/ml), L-glutamine (2 mM) and Geneticin (G418, 0.2 mg/ml) at 37° C. in 5% CO2/95% air. Cells were split 2 or 3 times weekly at a ratio between 1:5 and 1:20. For membrane preparation the culture medium was removed and the cells were washed with PBS and scraped off T75 flasks in ice-cold hypotonic buffer (5 mM Tris HCl, 2 mM EDTA, pH 7.4). The cell suspension was homogenized with Polytron and the homogenate was spun for 10 min at 1,000×g. The supernatant was then centrifuged for 30 min at 100,000×g. The membrane pellet was resuspended in 50 mM Tris HCl buffer pH 7.4 (for A3 adenosine receptors: 50 mM Tris HCl, 10 mM MgCl2, 1 mM EDTA) and incubated with 3 UI/ml of Adenosine deaminase for 30 min at 37° C. Then the suspension was frozen at −80° C. HEK 293 cells transfected with the human recombinant A2B adenosine receptor were obtained from Receptor Biology, Inc. (Beltsville, Md., USA).
Binding of [^3H]-SCH 58261 to CHO cells transfected with the human recombinant A2A adenosine receptors (50 μg of protein/assay) was performed using 0.2 ml 50 mM Tris HCl buffer, 10 mM MgCl2 pH 7.4 and at least 6-8 different concentrations of antagonists studied for an incubation time of 30 min at 25° C.

[2] = molecular target: T4, human A1 adenosine receptors (Homo sapiens, UniProt P30542); test: Displacement of [^3H]CHA binding, human A1 adenosine receptors in CHO cells (agonist radioligand)
T4 sequence (P30542 1-326): T1 sequence (P30542 1-326)

[3] = molecular target: T5, human A2A adenosine receptors (Homo sapiens, UniProt P29274); test: Displacement of [^3H]CGS21680 binding, human A2A adenosine receptors in CHO cells (agonist radioligand); settings: human A2A, CHO cells, [^3H]CGS21680; read-out: Ki(A2A). Displacement of [^3H]CGS21680 binding to human A2A adenosine receptors exp. in CHO cells.
T5 construct: expressed in transfected cells; host or cells: CHO cells

human hA2B receptors = molecular target: T6, human hA2B receptors (Homo sapiens, UniProt P29275); test: [^3H] DPCPX binding to human hA2B receptors expressed in HEK293 cells (antagonist radioligand); settings: human A2B, HEK293 cells, antagonist radioligand; read-out: [^3H] DPCPX binding to human hA2B receptors expressed in HEK293 cells Ki
T6 construct: host or cells: HEK 293 cells
T6 sequence (P29275 1-332): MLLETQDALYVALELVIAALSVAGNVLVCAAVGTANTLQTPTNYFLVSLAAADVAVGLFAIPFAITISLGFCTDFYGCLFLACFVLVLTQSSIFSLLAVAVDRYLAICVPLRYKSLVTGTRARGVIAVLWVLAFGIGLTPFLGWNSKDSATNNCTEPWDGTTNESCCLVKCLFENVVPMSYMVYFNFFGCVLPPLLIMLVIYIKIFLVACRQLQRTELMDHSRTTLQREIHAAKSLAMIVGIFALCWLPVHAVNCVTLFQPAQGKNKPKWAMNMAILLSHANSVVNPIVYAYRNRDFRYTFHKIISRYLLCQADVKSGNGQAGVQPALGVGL
Procedure: as §1
Competition experiments of [^3H]-DPCPX to HEK-293 cells transfected with the human recombinant A^2B adenosine receptor were performed for 60 min at 25° C. in 0.1 ml of 50 mM Tris HCl buffer, 10 mM MgCl2, 1 mM EDTA, 0.1 mM benzamidine pH 7.4, 2 IU/ml adenosine deaminase containing 34 nM [^3H]-DPCPX, diluted membranes (20 μg of protein/assay) and at least 6-8 different concentrations of selected compounds.

human A3 receptors = molecular target: T7, human A3 receptors (Homo sapiens, UniProt P0DMS8); test: [^3H] MRE3008F20 binding to human A3 receptors expressed in CHO cells (antagonist radioligand); settings: human A3, CHO cells, antagonist radioligand; read-out: [^3H] MRE3008F20 binding to human A3 receptors expressed in CHO cells Ki
T7 construct: expressed in transfected cells; host or cells: CHO cells
T7 sequence (P0DMS8 1-318): T2 sequence (P0DMS8 1-318)
Procedure: as §1
Binding of [^3H]-MRE 3008F20 to CHO cells transfected with the human recombinant A3 adenosine receptors was performed according to Varani et al., 2000. Competition experiments were carried out in duplicate in a final volume of […] in test tubes containing 1 nM [^3H]-MRE 3008F20, 50 mM Tris HCl buffer, 10 mM MgCl2, 1 mM EDTA pH 7.4 and 100 μl of diluted membranes (50 μg of protein/assay) and at least 8-10 different concentrations of examined antagonists. Incubation time was 120 min at 4° C., according to the results of previous time-course experiments.

A3 receptor = settings: cited from earlier work

T5 sequence (P29274 whole entry): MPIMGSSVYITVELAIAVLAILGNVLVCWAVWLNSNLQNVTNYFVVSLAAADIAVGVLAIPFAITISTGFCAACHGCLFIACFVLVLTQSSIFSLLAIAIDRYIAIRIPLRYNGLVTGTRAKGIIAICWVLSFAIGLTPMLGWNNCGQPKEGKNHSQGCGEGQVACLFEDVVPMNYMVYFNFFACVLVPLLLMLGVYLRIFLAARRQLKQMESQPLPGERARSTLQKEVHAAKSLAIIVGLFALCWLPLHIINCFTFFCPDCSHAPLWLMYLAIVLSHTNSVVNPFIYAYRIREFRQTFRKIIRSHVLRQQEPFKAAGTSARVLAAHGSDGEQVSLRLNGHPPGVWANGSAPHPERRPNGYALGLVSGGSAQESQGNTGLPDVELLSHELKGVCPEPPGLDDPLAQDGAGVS
T3 sequence (P29274 whole entry): as above

melting point | Ki (human A1 receptors) | Ki [1] | A1/A3 [1] | Ki (human A2A receptors) | Ki [2] | Ki [3] | Ki (human hA2B receptors) | Ki (human A3 receptors) | Compound | selective for the A3 receptor versus either the A1 or A2A receptors (A3 receptor)
180 to 183 °C | > 1000 nM | 23 nM | 10.86 | > 1000 nM | 250 nM | > 1000 nM | > 1000 nM | 237 nM | CCNC(=O)[C@H]1O[C@@H](n2cnc3c(NC(=O)Nc4ccc(S(=O)(=O)NCC)cc4)ncnc32)[C@H](O)[C@@H]1O [Compound 85, 1-Deoxy-1-[6-[[[[4-[N-(ethyl)aminosulfonyl]phenyl]amino]-carbonyl]amino]-9H-purin-9-yl]-N-ethyl-β-D-ribofuranuronamide] | –
199 °C | > 1000 nM | 80 nM | 5.56 | > 1000 nM | 445 nM | > 1000 nM | > 1000 nM | 886 nM | CCCCCNS(=O)(=O)c1ccc(NC(=O)Nc2ncnc3c2ncn3[C@@H]2O[C@H](C(=O)NCC)[C@@H](O)[C@H]2O)cc1 [Compound 87, 1-Deoxy-1-[6-[[[[4-[N-(pentyl)aminosulfonyl]phenyl]-amino]carbonyl]amino]-9H-purin-9-yl]-N-ethyl-β-D-ribofuranuronamide] | –
180 °C (dec.) | > 1000 nM | 25 nM | 11.6 | > 1000 nM | 290 nM | > 1000 nM | > 1000 nM | 340 nM | CCNC(=O)[C@H]1O[C@@H](n2cnc3c(NC(=O)Nc4ccc(S(=O)(=O)NC5CC5)cc4)ncnc32)[C@H](O)[C@@H]1O [Compound 89, 1-Deoxy-1-[6-[[[[4-[N-(cyclopropyl)aminosulfonyl]phenyl]amino]-carbonyl]-amino]-9H-purin-9-yl]-N-ethyl-β-D-ribofuranuronamide] | –
185 °C | > 1000 nM | 20 nM | 12.5 | > 1000 nM | 250 nM | > 1000 nM | > 1000 nM | 330 nM | CCNC(=O)[C@H]1O[C@@H](n2cnc3c(NC(=O)Nc4ccc(S(=O)(=O)NC(C)(C)C)cc4)ncnc32)[C@H](O)[C@@H]1O [Compound 92, 1-Deoxy-1-[6-[[[[4-[N-(1,1-dimethylethyl)aminosulfonyl]phenyl]amino]-carbonyl]amino]-9H-purin-9-yl]-N-ethyl-β-D-ribofuranuronamide] | –
192 °C | > 1000 nM | 35 nM | 7.5 | > 1000 nM | 240 nM | > 1000 nM | > 1000 nM | 310 nM | CCNC(=O)[C@H]1O[C@@H](n2cnc3c(NC(=O)Nc4ccc(S(=O)(=O)NC56CC7CC(CC(C7)C5)C6)cc4)ncnc32)[C@H](O)[C@@H]1O [Compound 93, 1-Deoxy-1-[6-[[[[4-[N-(adamantan-1-yl)sulfonyl]phenyl]amino]carbonyl]-amino]-9H-purin-9-yl]-N-ethyl-β-D-ribofuranuronamide] | –
– | – | – | – | – | – | – | – | – | CNC(=O)[C@H]1O[C@@H](n2cnc3c(NCc4cccc(I)c4)ncnc32)[C@H](O)[C@@H]1O [IB-MECA, N^6-(3-iodo-benzyl)-adenosine-5′-N-methyl-uronamide] | 50 fold
